Like-named read-outs stand apart in the source and are kept apart here. Starred links: 1 amine or outer side, 2 acyl side, 3 side chain; linkers in the order of their positions; H or OH if unused. Residues, ends and D or L forms follow the SMILES beside them. Groups on a side chain read outwards from the residue. *: point of attachment. C20 diacid = O=C(O)CCCCCCCCCCCCCCCCCCC(=O)*; C18 diacid = O=C(O)CCCCCCCCCCCCCCCCC(=O)*; γGlu = O=C(O)[C@H](CCC(=O)[*:2])N[*:1]; AEEA = NCCOCCOCC(=O)O
Tests used:
Type in all cases: cell-based
human CRF2α receptor = target: T1, human CRF2α receptor (Homo sapiens, UniProt Q13324); experiment: cAMP agonism at human CRF2 α receptor in TeloHEAC cells (Example 7); conditions: cAMP HTRF, TeloHEAC cells stably expressing human CRF2 α
T1 construct: expressed in transfected cells; host or cells: TeloHEAC
T1 sequence (Q13324 1-411): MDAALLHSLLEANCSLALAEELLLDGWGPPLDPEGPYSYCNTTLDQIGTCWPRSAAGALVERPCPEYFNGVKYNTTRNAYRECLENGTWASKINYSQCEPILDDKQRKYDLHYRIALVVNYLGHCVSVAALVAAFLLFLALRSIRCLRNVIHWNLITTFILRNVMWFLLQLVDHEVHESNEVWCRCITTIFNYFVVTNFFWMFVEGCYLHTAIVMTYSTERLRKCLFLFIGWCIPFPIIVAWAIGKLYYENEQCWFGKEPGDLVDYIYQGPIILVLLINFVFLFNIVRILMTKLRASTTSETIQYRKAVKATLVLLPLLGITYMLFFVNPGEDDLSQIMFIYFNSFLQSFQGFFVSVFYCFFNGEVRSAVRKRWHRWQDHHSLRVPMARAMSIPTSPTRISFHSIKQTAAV
In short: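 Percent activation was referenced to 1000 nM UCN2 (100%), and EC50 values taken as concentrations giving half of maximal response. The read-out was a homogeneous time-resolved fluorescence cAMP kit, fluorescence ratio 665/620 nm. Thawed cells (2000/well) saw compound for 30 min at RT in buffer with 2 mM IBMX and 0%/0.1% HSA.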

rat CRF2R α receptor = experiment: cAMP agonism at rat CRF2R α receptor in A7R5 rat aortic smooth muscle cells (Example 8); conditions: cAMP HTRF, A7R5 rat aortic smooth muscle cell line, 0% HSA
In short: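 Thawed cryopreserved A7R5 cells in HBSS/20 mM HEPES (0 or 0.1% HSA) with 2 mM IBMX, 2000 cells/well, were exposed to compound for 30 min at room temperature. cAMP was read by HTRF (665/620 nm ratio) after 1 h with lysis reagents. Activity was normalised to 1000 nM urocortin 2 as 100%, and EC50 was taken as the concentration giving 50% of maximal activation.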

CRF1R receptor = target: T2, CRF1R receptor (Homo sapiens, UniProt P34998); experiment: cAMP activity at anti-target CRF1R, CRF1R-overexpression CHO cell line (Example 9); conditions: for EC50: 0% HSA
T2 construct: host or cells: CHO-K1 clone 2
T2 sequence (P34998 24-415): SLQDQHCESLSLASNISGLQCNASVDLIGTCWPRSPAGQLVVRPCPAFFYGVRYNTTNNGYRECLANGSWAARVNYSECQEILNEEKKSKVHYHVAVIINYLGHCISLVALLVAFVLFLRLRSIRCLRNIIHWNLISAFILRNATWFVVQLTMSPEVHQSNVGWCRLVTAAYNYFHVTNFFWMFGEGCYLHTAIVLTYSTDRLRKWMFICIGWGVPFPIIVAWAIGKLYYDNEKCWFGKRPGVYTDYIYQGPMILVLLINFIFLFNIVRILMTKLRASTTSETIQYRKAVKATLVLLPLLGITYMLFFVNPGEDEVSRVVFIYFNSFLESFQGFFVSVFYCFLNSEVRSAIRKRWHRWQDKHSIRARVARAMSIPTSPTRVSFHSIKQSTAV
In short: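 cAMP accumulation was read by HTRF after 30 min at room temperature of compound treatment. Cells were cryopreserved CHO cells overexpressing CRF1R, plated at 2000/well in IBMX (2 mM)-containing HBSS/HEPES buffer with 0 or 0.1% HSA. Activity was normalized to 1000 nM UCN2 as 100%.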

[1] = 0% HSA, read-out: EC50 [nM], 0% HSA
[2] = 0.1% HSA, read-out: EC50 [nM], 0.1% HSA
[3] = CRF1R-overexpression CHO cell line
[4] = CRF1R-overexpression CHO cell line, read-out: Emax (%)

EC50 (CRF1R receptor; [3]) [nM]	Emax (CRF1R receptor; [4]) [%]	Structure (SMILES)	EC50 (human CRF2α receptor; [1]) [nM]	EC50 (human CRF2α receptor; [2]) [nM]	EC50 (rat CRF2R α receptor) [nM]	Emax (CRF1R receptor; CHO) [%]
> 1000	4.14	CC[C@H](C)[C@H](NC(=O)[C@H](CCC(N)=O)NC(=O)[C@H](CCCCNC(=O)COCCOCCNC(=O)COCCOCCNC(=O)CC[C@H](NC(=O)CCCCCCCCCCCCCCCCC(=O)O)C(=O)O)NC(=O)[C@@H](NC(=O)[C@H](CCCCN)NC(=O)[C@@H](NC(=O)[C@@H]1CCCN1C(=O)[C@@H](NC(=O)[C@H](CC(=O)O)NC(=O)[C@H](CC(C)C)NC(=O)[C@H](CO)NC(=O)[C@H](CC(C)C)NC(=O)[C@@H](NC(=O)[C@@H](N)Cc1ccccc1)[C@@H](C)O)C(C)C)[C@@H](C)O)[C@@H](C)CC)C(=O)N[C@@H](CC(C)C)C(=O)N[C@@H](CC(C)C)C(=O)N[C@@H](CCCCN)C(=O)N[C@@H](CCC(N)=O)C(=O)N[C@@H](CCC(N)=O)C(=O)N[C@@H](CCCCN)C(=O)N[C@@H](CCC(N)=O)C(=O)N[C@@H](CCCCN)C(=O)N[C@@H](CCCCN)C(=O)N[C@@H](CCC(=O)O)C(=O)N[C@@H](CCCNC(=N)N)C(=O)N[C@@H](CCC(N)=O)C(=O)N[C@@H](CCC(N)=O)C(=O)N[C@@H](C)C(=O)N[C@@H](CCC(=O)O)C(=O)N[C@H](C(=O)N[C@@H](CC(N)=O)C(=O)N[C@@H](CCCCN)C(=O)N[C@@H](CCC(N)=O)C(=O)N[C@@H](CC(C)C)C(=O)N[C@@H](CC(C)C)C(=O)N[C@@H](CCC(=O)O)C(=O)N[C@@H](CCCNC(=N)N)C(=O)N[C@H](C(N)=O)C(C)C)[C@@H](C)O [compound 53] (H-FTLSLDVPTKIK([AEEA-AEEA-γGlu-C18 diacid])QILLKQQKQKKERQQAETNKQLLERV-NH2)	1.01	55.1	1.32	–
–	–	CC[C@H](C)[C@H](NC(=O)[C@H](CCC(N)=O)NC(=O)[C@H](CCCCNC(=O)COCCOCCNC(=O)COCCOCCNC(=O)CC[C@H](NC(=O)CCCCCCCCCCCCCCCCC(=O)O)C(=O)O)NC(=O)[C@H](CC(C)C)NC(=O)[C@H](CCCCN)NC(=O)[C@@H](NC(=O)[C@@H]1CCCN1C(=O)[C@@H](NC(=O)[C@H](CC(=O)O)NC(=O)[C@H](CC(C)C)NC(=O)[C@H](CO)NC(=O)[C@H](CC(C)C)NC(=O)[C@@H](NC(=O)[C@@H](N)Cc1ccccc1)[C@@H](C)O)C(C)C)[C@@H](C)CC)C(=O)N[C@@H](CC(C)C)C(=O)N[C@@H](CC(C)C)C(=O)N[C@@H](CCCCN)C(=O)N[C@@H](CCC(N)=O)C(=O)N[C@@H](CCC(N)=O)C(=O)N[C@@H](CCCCN)C(=O)N[C@@H](CCC(N)=O)C(=O)N[C@@H](CCCCN)C(=O)N[C@@H](CCCCN)C(=O)N[C@@H](CCC(=O)O)C(=O)N[C@@H](CCCNC(=N)N)C(=O)N[C@@H](CCC(N)=O)C(=O)N[C@@H](CCC(N)=O)C(=O)N[C@@H](C)C(=O)N[C@@H](CCC(=O)O)C(=O)N[C@H](C(=O)N[C@@H](CC(N)=O)C(=O)N[C@H](C(=O)N[C@@H](CCC(N)=O)C(=O)N[C@@H](CC(C)C)C(=O)N[C@@H](CC(C)C)C(=O)N[C@@H](CCC(=O)O)C(=O)N[C@@H](CCCNC(=N)N)C(=O)N[C@H](C(N)=O)C(C)C)C(C)C)[C@@H](C)O [compound 54] (H-FTLSLDVPIKLK([AEEA-AEEA-γGlu-C18 diacid])QILLKQQKQKKERQQAETNVQLLERV-NH2)	0.57	24.5	1.51	2.72
–	–	CC[C@H](C)[C@H](NC(=O)[C@H](CCC(N)=O)NC(=O)[C@H](CCCCNC(=O)COCCOCCNC(=O)COCCOCCNC(=O)CC[C@H](NC(=O)CCCCCCCCCCCCCCCCCCC(=O)O)C(=O)O)NC(=O)[C@H](CC(C)C)NC(=O)[C@H](CCCCN)NC(=O)[C@@H](NC(=O)[C@@H]1CCCN1C(=O)[C@@H](NC(=O)[C@H](CC(=O)O)NC(=O)[C@H](CC(C)C)NC(=O)[C@H](CO)NC(=O)[C@H](CC(C)C)NC(=O)[C@@H](NC(=O)[C@@H](N)Cc1ccccc1)[C@@H](C)O)C(C)C)[C@@H](C)CC)C(=O)N[C@@H](CC(C)C)C(=O)N[C@@H](CC(C)C)C(=O)N[C@@H](CCCCN)C(=O)N[C@@H](CCC(N)=O)C(=O)N[C@@H](CCC(N)=O)C(=O)N[C@@H](CCCCN)C(=O)N[C@@H](CCC(N)=O)C(=O)N[C@@H](CCCCN)C(=O)N[C@@H](CCCCN)C(=O)N[C@@H](CCC(=O)O)C(=O)N[C@@H](CCCNC(=N)N)C(=O)N[C@@H](CCC(N)=O)C(=O)N[C@@H](CCC(N)=O)C(=O)N[C@@H](C)C(=O)N[C@@H](CCC(=O)O)C(=O)N[C@H](C(=O)N[C@@H](CC(N)=O)C(=O)N[C@H](C(=O)N[C@@H](CCC(N)=O)C(=O)N[C@@H](CC(C)C)C(=O)N[C@@H](CC(C)C)C(=O)N[C@@H](CCC(=O)O)C(=O)N[C@@H](CCCNC(=N)N)C(=O)N[C@H](C(N)=O)C(C)C)C(C)C)[C@@H](C)O [compound 62] (H-FTLSLDVPIKLK([AEEA-AEEA-γGlu-C20 diacid])QILLKQQKQKKERQQAETNVQLLERV-NH2)	0.8	–	2.9	2.28
> 1000	4.68	CC[C@H](C)[C@H](NC(=O)[C@H](CCC(N)=O)NC(=O)[C@H](CCCCNC(=O)COCCOCCNC(=O)COCCOCCNC(=O)CC[C@H](NC(=O)CCCCCCCCCCCCCCCCCCC(=O)O)C(=O)O)NC(=O)[C@H](CC(C)C)NC(=O)[C@H](CCCCN)NC(=O)[C@@H](NC(=O)[C@@H]1CCCN1C(=O)[C@@H](NC(=O)[C@H](CC(=O)O)NC(=O)[C@H](CC(C)C)NC(=O)[C@H](CO)NC(=O)[C@H](CC(C)C)NC(=O)[C@@H](NC(=O)[C@@H](N)Cc1ccccc1)[C@@H](C)O)C(C)C)[C@@H](C)CC)C(=O)N[C@@H](CC(C)C)C(=O)N[C@@H](CC(C)C)C(=O)N[C@@H](CCC(=O)O)C(=O)N[C@@H](CCC(N)=O)C(=O)N[C@@H](CCC(N)=O)C(=O)N[C@@H](CCCCN)C(=O)N[C@@H](CCC(N)=O)C(=O)N[C@@H](CCCCN)C(=O)N[C@@H](CCCCN)C(=O)N[C@@H](CCC(=O)O)C(=O)N[C@@H](CCCNC(=N)N)C(=O)N[C@@H](CCC(N)=O)C(=O)N[C@@H](CCC(N)=O)C(=O)N[C@@H](C)C(=O)N[C@@H](CCC(=O)O)C(=O)N[C@H](C(=O)N[C@@H](CC(N)=O)C(=O)N[C@H](C(=O)N[C@@H](CCC(N)=O)C(=O)N[C@@H](CC(C)C)C(=O)N[C@@H](CC(C)C)C(=O)N[C@@H](CCC(=O)O)C(=O)N[C@@H](CCCNC(=N)N)C(=O)N[C@H](C(N)=O)C(C)C)C(C)C)[C@@H](C)O [compound 63] (H-FTLSLDVPIKLK([AEEA-AEEA-γGlu-C20 diacid])QILLEQQKQKKERQQAETNVQLLERV-NH2)	0.63	–	4.73	–

Reference: patent US12679878B2, “CRF2 receptor agonists and their use in therapy” (SANOFI, priority 2020, dated 2026)
